Measurements reported in PMC8751734 (Cell Chemical Biology, 2022).

Molecular target: SARS-CoV-2 PL^pro (Severe acute respiratory syndrome coronavirus 2, UniProt P0DTD1)
Type: biochemical

Row | Compound | dose-dependent inhibition of PL^pro, compared with ACF
1 | CN(C)c1ccc2cc3ccc(N(C)C)cc3nc2c1 [acridine orange base] | less active than the parent compound
2 | Nc1ccc2cc3ccc(N)cc3nc2c1.O=S(=O)(O)O [acridine-3,6-diamine sulfate] | less active than the parent compound
